14 compounds from ChEMBL document CHEMBL1177794, “Broad spectrum alkynyl inhibitors of T315I Bcr-Abl” (Bioorg Med Chem Lett, 2010) can be followed below.

What all share (type): functional, cell-based
In assay [1] the test system is BaF3. As to the kind of experiment: Antiproliferative activity against mouse BAF3 cells expressing wild type Bcr-Abl.
In assay [2] the test system is BaF3. As to the kind of experiment: Antiproliferative activity against mouse BAF3 cells expressing Bcr-Abl T315I mutant.
Assay [3] deals with BaF3. As to the kind of experiment: Antiproliferative activity against mouse BAF3 cells.

The structures appear in SMILES notation.

As for `CCN1CCN(Cc2ccc(NC(=O)c3cccc(C#Cc4cnc5[nH]ccc5c4)c3)cc2C(F)(F)F)CC1`, the results for the EC50 in the assay with BaF3 [1], in the assay with BaF3 [2] and in the assay on BaF3 [3] were 11 nM, 220 nM and > 10000 nM, respectively.

For `CCN1CCN(Cc2ccc(NC(=O)c3ccc(C)c(C#Cc4cnc5[nH]c(C)cc5c4)c3)cc2C(F)(F)F)CC1`, the values for the EC50 in the assay with BaF3 [1], with BaF3 [2] and with BaF3 [3] were 26 nM, 560 nM and 1000 nM, respectively.

With `CCN1CCN(Cc2ccc(NC(=O)c3ccc(C)c(C#Cc4cnc5nccnc5c4)c3)cc2C(F)(F)F)CC1`, the results for the concentration giving a half-maximal response (EC50) in the assay with BaF3 [1], with BaF3 [2] and in the assay with BaF3 [3] were 37 nM, 5520 nM and 3320 nM, respectively.

Turning to `Cc1cn(-c2cc(NC(=O)c3ccc(C)c(C#Cc4cnc5[nH]ccc5c4)c3)cc(C(F)(F)F)c2)cn1`, the EC50 in the assay on BaF3 [1] was 37 nM; in the assay on BaF3 [2], 470 nM; in the assay on BaF3 [3], > 10000 nM.

In the case of `CCN1CCN(Cc2ccc(NC(=O)c3ccc(C)c(C#Cc4ccc(NC(=O)C5CC5)nc4)c3)cc2C(F)(F)F)CC1`, the EC50 in the assay on BaF3 [1] was < 1 nM; in the assay with BaF3 [2], 13 nM; with BaF3 [3] it was 1800 nM.

Take `Cc1cn(-c2cc(NC(=O)c3cccc(C#Cc4cnc5[nH]ccc5c4)c3)cc(C(F)(F)F)c2)cn1`: the 50% effective concentration (EC50) with BaF3 [1] was found to be 15 nM; in the assay with BaF3 [2], 300 nM; in the assay on BaF3 [3], 2830 nM.

Consider `CCN1CCN(Cc2ccc(NC(=O)c3ccc(C)c(C#Cc4cnc5[nH]cnc5c4)c3)cc2C(F)(F)F)CC1`, for which the concentration giving a half-maximal response (EC50) is < 1 nM with BaF3 [1], 14 nM in the assay with BaF3 [2] and 60 nM with BaF3 [3].

For the compound `CCN1CCN(Cc2ccc(NC(=O)c3ccc(C)c(C#Cc4ccc(NC(C)=O)nc4)c3)cc2C(F)(F)F)CC1`, the EC50 in the assay with BaF3 [1] was < 1 nM; with BaF3 [2], 10 nM; with BaF3 [3] it was 2050 nM.

In the case of `CCN1CCN(Cc2ccc(NC(=O)c3ccc(C)c(C#Cc4cnc(N)cn4)c3)cc2C(F)(F)F)CC1`, the EC50 in the assay on BaF3 [1] was < 1 nM; in the assay with BaF3 [2] it was 165 nM; in the assay with BaF3 [3], 860 nM.

As to `CCN1CCN(Cc2ccc(NC(=O)c3ccc(C)c(C#Cc4cnccn4)c3)cc2C(F)(F)F)CC1`, the figures for the EC50 in the assay on BaF3 [1], in the assay on BaF3 [2] and in the assay on BaF3 [3] were 6 nM, 3030 nM and 2490 nM, respectively.

For the compound `CCN1CCN(Cc2ccc(NC(=O)c3ccc(C)c(C#Cc4cncnc4)c3)cc2C(F)(F)F)CC1`, the figures for the 50% effective concentration (EC50) in the assay with BaF3 [1], in the assay on BaF3 [2] and with BaF3 [3] were < 1 nM, 990 nM and 2190 nM, respectively.

In the case of `CCN1CCN(Cc2ccc(NC(=O)c3ccc(C)c(C#Cc4coc5ccccc45)c3)cc2C(F)(F)F)CC1`, the values for the 50% effective concentration (EC50) with BaF3 [1], with BaF3 [2] and in the assay on BaF3 [3] were 240 nM, 8370 nM and 6760 nM, respectively.

Take `CCN1CCN(Cc2ccc(C(=O)Nc3ccc(C)c(C#Cc4cnc5[nH]ccc5c4)c3)cc2C(F)(F)F)CC1`: the 50% effective concentration (EC50) turned out to be 70 nM with BaF3 [1], 2630 nM with BaF3 [2] and 7860 nM in the assay with BaF3 [3].

`CCN1CCN(Cc2ccc(NC(=O)c3ccc(C)c(C#Cc4ccc(C(=O)NC)nc4)c3)cc2C(F)(F)F)CC1`: the EC50 came out at 41 nM with BaF3 [1], 2580 nM in the assay on BaF3 [2] and 3980 nM in the assay on BaF3 [3].

In general, EC50 refers to the concentration that produces a half-maximal response. A higher EC50 goes with lower potency in that assay.
